# Data taken from patent US5856506A, “Phosphatase inhibitors and methods of use thereof” (University of Pittsburgh, priority 1997, dated 1999).
# Where two headings read alike, the source gives them in different places.
# Key:
# [1] = tested on: human MDA-MB-231 breast cancer cells; experiment: Antiproliferative activity, tetrazolium reduction assay (Lazo method), 72 h; type: cell-based; settings: MDA-MB-231, 72 h
# From the text: The ability of the compounds of the present invention to inhibit proliferation can be assessed by methods known to those of ordinary skill in the art. For example, proliferating cells can be contacted with a compound of the invention, and cell numbers determined. A reduction in cell number in treated versus untreated cells provides a measure of the ability of the present compounds to inhibit proliferation. In a preferred embodiment the cells to be treated are cancer cells, for example breast cancer cells such as the CDC25B+ breast cancer cells MDA-MB-231, which are available from the American Type Culture Collection (Accession No. HTB-26). The antiproliferative activity of the present compounds can also be measured by the assay described by Lazo et al. (1995) J. Biol. Chem. 270: 5506, the disclosure of which is incorporated herein by reference. The microtiter-based calorimetric assay is based upon the reduction of 3-[4,5-dimethylthiazol-2-yl]-2,5-diphenyl tetrazolium bromide by living cells, and permits evaluation of the cytostatic or cytotoxic actions of large numbers of compounds quickly in mouse embryonic fibroblasts and human CDC25B+ breast cancer cells. Briefly, exponentially growing CDC25B+ MDA-MB-231 cells are treated continuously with from 0 to 100 μM of a compound of the invention, and cell proliferation is determined calorimetrically after 72 hours by assessing the ability of the cells to reduce 3-[4,5-dimethylthiazol-2-yl]-2,5-diphenyl tetrazolium bromide.
# Human MDA-MB-231 breast carcinoma cells were obtained from the American Type Culture Collection at passage 28 and were maintained for no longer than 20 passages. The cells were grown in RPMI-1640 supplemented with 1% penicillin (100 μg/mL) and streptomycin (100 μg/mL), 1% L-glutamate,and 10% fetal bovine serum in a humidified incubator at 37° C. under 5% CO2 in air. Cells were routinely found free of mycoplasma. To remove cells from the monolayer for passage or flow cytometry, cells were washed two times with phosphate buffer and briefly (<3 min) treated with 0.05% trypsin/2 mM EDTA at room temperature. After the addition of at least two volumes of growth medium containing 10W fetal bovine serum, the cells were centrifuged at 1,000×g for 5 min. Compounds were made into stock solutions using DMSO, and stored at -20° C. All compounds and controls were added to obtain a final concentration of 0.1-0.2% (v/v) of the final solution for experiments.
# The antiproliferative activity of the compounds was determined by the method of Lazo et al. (1995) J. Biol. Chem. 270:5506. Briefly, cells (6.5×10^3 cells/cm^2) were plated in 96 well flat bottom plates for the cytotoxicity studies and incubated at 37° C. for 48 h. The plating medium was aspirated off 96 well plates and 200 μL of growth medium containing the compound was added per well. Compounds were used at from O to the highest available concentration which ranged from 30 to 100 μM. Plates were incubated for 72 h, and then washed 4× with serum free medium. After washing, 50 μL of 3-[4,5-dimethylthiazol-2-yl]-2,5-diphenyl tetrazolium bromide solution (2 mg/mL) was added to each well, followed by 150 μL of complete growth medium. Plates were then incubated an additional 4 h at 37° C. The solution was aspirated off, 200 μL of DMSO added, and the plates were shaken for 30 min at room temperature. Absorbance at 540 nm was determined with a Titertek Multiskan Plus plate reader. Biologically active compounds were tested at least 3 independent times.
# [2] = tested on: PP1; experiment: Phosphatase activity by [32P] release from phosphorylase-a or phosphohistone (Honkanen method); type: biochemical; settings: 100 μM inhibitor; none = 100
# Method: (§1) It has been found in accordance with the present invention that compounds of formula I are capable of inhibiting serine/threonine protein phosphatases. Inhibition of serine/threonine protein phosphatases is defined herein as inhibition of the activity of one or more of PP1, PP2A or PP3 at a concentration of 100 μM or less of the inhibitor compound. In a preferred embodiment, the activity of the phosphatase is inhibited by at least 10%. In more preferred embodiments, the activity of the phophatase is inhibited by at least 25%, or even more preferably, by at least 50%. Inhibition of PP1, PP2A or PP3 can be assessed by methods known to one of ordinary skill in the art. Suitable assays are described, for example by Honkanen et al. (1994) Toxicon 32:339 and Honkanen et al. (1990) J. Biol. Chem. 265: 19401, the disclosures of which are incorporated herein by reference. Briefly, phosphatase activity is determined by quantifying the [^32 p] released from a ^32 p-labeled substrate such as phosphohistone or phosphorylase-a. Decreased [^32 p] release in the presence of the compounds of the present invention relative to control samples provides a measure of the ability of the compounds of the invention to inhibit PP1, PP2A or PP3.
# (§2) Phosphatase activity and the inhibitory activity of the compounds of Table 1 were determined by the method of Honkanen et al. (1994) Toxicon 32:339. Briefly, phosphatase activity against phosphorylase-a or phosphohistone was 25 determined by the quantification of liberated [^32 p]. Assays, 80 μl total volume, containing 50 mM Tris-HCl, pH 7.4, 0.5 mM DTT, 1 mM EDTA (assay buffer) and [^32 p]phosphoprotein (1-2 μM PO4), were conducted as described previously (Honkanen et al., 1991 Mol. Pharmac. 40:577). Dephosphorylation reactions were routinely conducted for 5-10 min. using phosphorylase-a as a substrate and for 10-20 min. using phosphohistone. In all assays the dephosphorylation of substrate was kept to less than 10% of the total phosphorylated substrate available, and the reactions were adjusted to ensure that enzyme activity was linear with respect to enzyme concentration and time. [^32 p]Phosphate liberated by the enzymes was extracted as a phosphomolybdate complex and measured according to the methods of Killilea et al. (1978) Arch. Biochem. Biophys. 191:638. Inhibition of protein phosphatase activity by inhibitors was determined by adding the 100 μM of inhibitors to the enzyme mixture 5-10 min. prior to initiating the reaction with the addition of substrate.
# [3] = target: PP2A (Bos taurus, UniProt P67774); experiment: as above; type: biochemical; settings: 100 μM inhibitor; none = 100; read-out: PP2A, percent inhibition relative to control (100%)
# Method: as §1, §2
# [4] = tested on: PP3; experiment: as above; type: biochemical; settings: 100 μM inhibitor; none = 100
# Method: as §1, §2
# [5] = tested on: Recombinant human CDC25B; experiment: CDC25B phosphatase assay, GST fusion protein, fluorescein diphosphate; type: biochemical; settings: none = 100; 1 hour preincubation; concentration not given (0.3-100 μM tested)
# Method: The compounds of the present invention are also capable of inhibiting dual specificity phosphatases, for example CDC25A and CDC25B. Phosphatases CDC25A and CDC25B are disclosed in U.S. Pat. No. 5,441,880. Inhibition of dual specificity phosphatases is defined herein as inhibition of the activity of CDC25A and/or CDC25B at a concentration of 100 μM of the inhibitor compound. In a preferred embodiment, the activity of the phosphatase is inhibited by at least 10%. In more preferred embodiments, the activity of the phophatase is inhibited by at least 25%, or even more preferably, by at least 50%. The ability of the compounds of the present invention to inhibit the phosphatases can be determined by measuring the effect of the compounds on the ability of CDC25 or CDC25B to dephosphorylate a substrate. Appropriate methods are known to those of ordinary skill in the art, and include, for example, calorimetric assays. A suitable assay is described in U.S. Pat. No. 5,441,880, the disclosure of which is incorporated herein by reference. […] The assay may be performed as a rapid calorimetric microtitration plate assay.
# Compounds 1a-1r were assessed for ability to inhibit CDC25A and CDC25B activity. Recombinant human CDC25A and CDC25B were obtained as a glutahione-S-transferase (GST) fusion protein using human cDNA and standard molecular biological methods. The cDNA constructs are in a plasmid that is expressed in E. coli under the control of isopropyl-beta-D-[…] (IPTG). The bacterial pellet was disrupted by sonication, and centrifuged at 10,000×g. Using glutathione-agarose beads, the fusion protein was purified from postmicrosomal supernant fraction as described by Baratte et al. (1992) Anticancer Res. 12: 873-880. Phosphatase activity was assayed with a spectrofluorimeter under the following conditions: 1 unit (1 U=amount of protein that induces 33 fluoresence units/minute of product) of fusion protein in a final incubation mixture (150 μL) comprised of 25 mM Tris (pH=8.0), 5 mM EDTA, 33 μg/ml BSA, and 20 μM fluorescein diphosphate in 96-well microtiter plates. Plates were preincubated for 1 hour with 0 (control), 0.3, 1, 3, 10, 30, 100 μM compounds at room temperature. After the 1 hour incubation at room temperature, fluorescence of the fluorescein product (Ex. 485 nm; Em. 530 nm) were measured with a Biosystems Cytofluor II (Framingham, Mass.).
# [6] = target: PP2A (Homo sapiens, UniProt P67775); settings: background, literature, cited from earlier work
# [7] = target: T1, catalytic subunit of bovine cardiac muscle PP2A (Bos taurus, UniProt P67774); experiment: PP2A activity with fluorescein diphosphate substrate in 96-well plates; type: biochemical; settings: FIG. 6
# T1 construct: purchased Gibco-BRL, Gaithersburg, Md; host or cells: bovine cardiac muscle
# Method: FIG. 6 is a graph of inhibition of PP2A activity by compound 1d. The catalytic subunit of PP2A was incubated with vehicle alone (control), calyculin A (10 nM) or compound 1d (100 uM), and the dephosphorylation of the substrate fluorescein diphosphate determined spectro-photometrically. Mean results of two independent experiments are shown; bars indicate the range.
# In another suitable assay, the ability of the compounds of the present invention to inhibit the activity of protein phosphatase PP2A is assessed. The activity of the catalytic subunit of bovine cardiac muscle PP2A (Gibco-BRL, Gaithersburg, Md.) is measured in 96-well microtiter plates using the substrate fluorescein diphosphate as follows. […] Fluorescence emission from the product is measured spectrofluorometrically, for example with Perseptive Biosystems Cytofluor II (Framingham, Mass.) (excitation filter, 485 nm; emission filter, 530 nm). The rate of increase in absorbance due to formation of dephosphorylated substrate is proportional to phosphatase activity. Thus, decreased absorbance relative to control samples provides a measure of the ability of the present compounds to inhibit the phosphatase.
# The activity of the catalytic subunit of bovine cardiac muscle PP2A (Gibco-BRL, Gaithersburg, Md.) was measured with fluorescein diphosphate (Molecular Probes, Inc., Eugene, Oreg.) as a substrate in 96-well microtiter plates. […]
# [8] = tested on: PP1; settings: cited from earlier work
# [9] = tested on: PP3; settings: background, literature; cited from earlier work
# [10] = somewhat selective but weak inhibitors
# Sequence of PP2A (Homo sapiens, UniProt P67775) (P67775 whole entry): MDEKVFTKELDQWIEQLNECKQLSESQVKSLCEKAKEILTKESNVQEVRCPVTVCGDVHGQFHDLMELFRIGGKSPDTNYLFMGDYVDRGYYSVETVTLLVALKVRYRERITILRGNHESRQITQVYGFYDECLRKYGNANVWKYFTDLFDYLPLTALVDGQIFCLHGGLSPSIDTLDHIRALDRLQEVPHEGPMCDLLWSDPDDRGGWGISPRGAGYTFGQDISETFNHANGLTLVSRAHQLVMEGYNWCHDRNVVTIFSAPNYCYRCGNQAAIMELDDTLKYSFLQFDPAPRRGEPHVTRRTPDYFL
# T1 sequence (P67774 whole entry): as the sequence (P67775 whole entry) above
# Sequence of PP2A (Bos taurus, UniProt P67774) (P67774 whole entry): as the sequence (P67775 whole entry) above
compound,measurement,setting,value
CCCCCCN(CCNC(=O)c1nc(-c2ccccc2)oc1C)C(=O)CCC(NC(=O)CCc1ccccc1)C(=O)O (stereo not drawn) [Compound 1h],IC50,"[1]; Homo sapiens, MDA-MB-231, 72 h continuous treatment, read-out: concentration causing 50% growth inhibition",20000 nM
same,concentration dependence of growth inhibition (in words),[1],no further cytotoxicity at higher drug concentrations
same,"PP1 remaining activity, percent of control",[2],63%
same,"PP2A remaining activity, % of control at 100 µM",[3],88%
same,"PP3 remaining activity, percent of control",[4],17%
same,"CDC25B activity remaining, percent of control",[5],69%
thyrsiferal-23-acetate,IC50,[6]; [10],160 to 10000 nM
COC[C@@H]([C@H](O)[C@H](O)C(=O)NCC[C@H](C)c1nc(/C=C/C[C@@H]2O[C@]3(C[C@@H](O)[C@@H]2C)O[C@H]([C@H](C[C@H](O)[C@H](C)[C@H](O)[C@H](C)/C=C(C)/C(C)=C/C=C/C(C)=C\C#N)OC)[C@H](OP(=O)(O)O)C3(C)C)co1)N(C)C [calyculin A],inhibition of PP2A activity (in words),[7]; 10 nM,inhibited PP2A activity
same,IC50,"[8]; background, literature",~0.3 nM
same,IC50,[9],~0.3 nM
same,IC50,[6],~0.3 nM
C/C=C1/C(=O)N[C@@H](C(=O)O)[C@H](C)C(=O)N[C@@H](C(C)C)C(=O)N[C@@H](/C=C/C(C)=C/[C@H](C)[C@H](Cc2ccccc2)OC)[C@H](C)C(=O)N[C@@H](C(=O)O)CCC(=O)N1C [Motuporin],IC50,[8],< 1 nM
C[C@@]12C(=O)OC(=O)[C@]1(C)[C@H]1CC[C@@H]2O1 [cantharidine],IC50,[6]; [10],160 to 10000 nM
CO[C@H]([C@H](O)CC(=O)[C@@H](C)[C@@H](O)CC[C@@H](C)[C@@H]1O[C@]2(CC[C@@H](C)[C@H](CC[C@H](C)C(C)=O)O2)CC[C@@H]1C)[C@H](OC(=O)C[C@@H](O)C1=C(C)C(=O)OC1=O)C(C)C [Tautomycin],IC50,"[8]; background, literature",~15 nM
same,IC50,[9],~15 nM
same,IC50,[6],~15 nM
CCCCCCCCCC(=O)NC(CCC(=O)N(C)CCNC(=O)c1nc(-c2ccccc2)oc1-c1ccccc1)C(=O)O (stereo not drawn) [Compound 1d],inhibition at 100 µM,[7]; 100 μM,50%
same,"PP1 remaining activity, percent of control",[2],53%
same,"PP2A remaining activity, % of control at 100 µM",[3],69%
same,"PP3 remaining activity, percent of control",[4],33%
same,"CDC25B activity remaining, percent of control",[5],91%
